ChEMBL document CHEMBL1201862, “PubChem BioAssay data set” (2004)
Several values for one entry are separate records, joined by “and”; a condition that tells them apart may be missing. Equal entries are not always repeated.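 Growth conditions: 96-well plates. Treatment: test compound, 48 hours, 5 concentrations. Analysis: linear interpolation between bracketing concentrations; unreached endpoints set to highest concentration. GI50 is the concentration that inhibits growth by half.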 Activity calls are given as the source filed them. Cut-off read from the data, not from the text of the source: active = GI50 up to about 1.1 µM and inactive = higher.

What was measured:
Test in all cases: inhibition of tumour cell growth, NCI panel, 48 h
SR = system: SR
SK-OV-3 = system: SK-OV-3
HCT-116 = system: HCT-116
KM-20L2 = system: KM-20L2
NCI-H460 = system: NCI-H460
XF498 = system: XF498
786-0 = system: 786-0
SK-MEL-2 = system: SK-MEL-2
HT-29 = system: HT-29
MDA-MB-435 = system: MDA-MB-435
DU-145 = system: DU-145
EKVX = system: EKVX
SK-MEL-5 = system: SK-MEL-5
U-251 = system: U-251
NCI-H522 = system: NCI-H522
LOX IMVI = system: LOX IMVI
Hs-578T = system: Hs-578T
IGROV-1 = system: IGROV-1
SN12C = system: SN12C
DMS-114 = system: DMS-114
HCT-15 = system: HCT-15
Malme-3M = system: Malme-3M
MDA-MB-231 = system: MDA-MB-231
HOP-18 = system: HOP-18
UO-31 = system: UO-31
RXF 631 = system: RXF 631
HL-60 = system: HL-60
HOP-62 = system: HOP-62
A549 = system: A549
MCF7 = system: MCF7
M19-MEL = system: M19-MEL
T47D = system: T47D
CAKI-1 = system: CAKI-1
OVCAR-8 = system: OVCAR-8
SF-268 = system: SF-268
UACC-257 = system: UACC-257
SNB-78 = system: SNB-78
OVCAR-4 = system: OVCAR-4
SNB-19 = system: SNB-19
SF-539 = system: SF-539
M14 = system: M14
TK-10 = system: TK-10
DLD-1 = system: DLD-1
DMS-273 = system: DMS-273
SW-620 = system: SW-620
NCI-H226 = system: NCI-H226
BT-549 = system: BT-549
MDA-N = system: MDA-N
OVCAR-3 = system: OVCAR-3
UACC-62 = system: UACC-62
HOP-92 = system: HOP-92
SNB-75 = system: SNB-75
NCI-H23 = system: NCI-H23
RXF 393 = system: RXF 393
NCI/ADR-RES = system: NCI/ADR-RES
COLO 205 = system: COLO 205
LXFL 529 = system: LXFL 529
ACHN = system: ACHN
SF-295 = system: SF-295
SK-MEL-28 = system: SK-MEL-28
PC-3 = system: PC-3
A498 = system: A498
HCC 2998 = system: HCC 2998

For `C=C1C(=O)OC2/C=C(\CO)C(OC(C)=O)CC(O)/C(C)=C/C(OC(=O)C(C)CC)C12` (stereo not drawn), the GI50 (SR) was 8 µM (inactive), the GI50 (SK-OV-3) was > 100 µM (inactive) and the GI50 (HCT-116) was 14 µM (inactive) and 19.7 µM (inactive). The GI50 (KM-20L2) was 22.4 µM (inactive), the GI50 (NCI-H460) was 23.3 µM (inactive) and 38.6 µM (inactive) and the GI50 (XF498) was 15.8 µM (inactive). For the same compound, the GI50 (786-0) was 14.8 µM (inactive) and 21.8 µM (inactive), the GI50 (SK-MEL-2) was 17.5 µM (inactive) and 17.1 µM (inactive) and the GI50 (HT-29) was 16.3 µM (inactive) and 21 µM (inactive). For the same compound, the GI50 (MDA-MB-435) was 20.3 µM (inactive), the GI50 (DU-145) was 19.8 µM (inactive) and the GI50 (EKVX) was 25.5 µM (inactive) and 25.1 µM (inactive). The GI50 (SK-MEL-5) was 18.8 µM (inactive) and 17 µM (inactive), the GI50 (U-251) was 30.1 µM (inactive) and 26.9 µM (inactive) and the GI50 (NCI-H522) was 4.57 µM (inactive) and 3.4 µM (inactive). The GI50 (LOX IMVI) was 18.8 µM (inactive) and 13.7 µM (inactive), the GI50 (Hs-578T) was 36.9 µM (inactive) and the GI50 (IGROV-1) was 38.4 µM (inactive) and 40 µM (inactive). The GI50 (SN12C) was 18.2 µM (inactive) and 20.2 µM (inactive), the GI50 (DMS-114) was 23.6 µM (inactive) and the GI50 (HCT-15) was 38.6 µM and 30.2 µM. For the same compound, the GI50 (Malme-3M) was 13.5 µM (inactive) and 15.3 µM (inactive), the GI50 (MDA-MB-231) was 17.3 µM (inactive) and the GI50 (HOP-18) was 23.8 µM (inactive). For the same compound, the GI50 (UO-31) was 87.1 µM (inactive) and 65.5 µM (inactive), the GI50 (RXF 631) was 33.5 µM (inactive) and the GI50 (HL-60) was 5.86 µM (inactive) and 4.97 µM (inactive). For the same compound, the GI50 (HOP-62) was > 100 µM (inactive), the GI50 (A549) was 45.8 µM (inactive) and 37.3 µM (inactive) and the GI50 (MCF7) was 12.9 µM (inactive). For the same compound, the GI50 (M19-MEL) was 16.8 µM (inactive), the GI50 (T47D) was 15.7 µM (inactive) and the GI50 (CAKI-1) was 27.5 µM (inactive) and 24.2 µM (inactive). For the same compound, the GI50 (OVCAR-8) was 21.7 µM (inactive) and 17.7 µM (inactive), the GI50 (SF-268) was 28.9 µM (inactive) and 19.7 µM (inactive) and the GI50 (UACC-257) was 15.2 µM (inactive) and 18 µM (inactive). For the same compound, the GI50 (SNB-78) was 16.3 µM (inactive), the GI50 (OVCAR-4) was 33.5 µM (inactive) and 17.3 µM (inactive) and the GI50 (SNB-19) was 50.1 µM (inactive) and 75.7 µM (inactive). The GI50 (SF-539) was 24.8 µM (inactive) and 19.2 µM (inactive), the GI50 (M14) was 16.7 µM (inactive) and 15.8 µM (inactive) and the GI50 (TK-10) was 17.6 µM (inactive) and 19.3 µM (inactive). For the same compound, the GI50 (DLD-1) was 12.9 µM (inactive), the GI50 (DMS-273) was 19.1 µM (inactive) and the GI50 (SW-620) was 11.8 µM (inactive) and 21.5 µM (inactive). For the same compound, the GI50 (NCI-H226) was 29.6 µM (inactive), the GI50 (BT-549) was 19.4 µM (inactive) and the GI50 (MDA-N) was 18.3 µM (inactive). For the same compound, the GI50 (OVCAR-3) was 18.5 µM (inactive) and 16.5 µM (inactive), the GI50 (UACC-62) was 19.4 µM (inactive) and 17.5 µM (inactive) and the GI50 (HOP-92) was 18.5 µM (inactive) and 21.7 µM (inactive). The GI50 (SNB-75) was 24.3 µM (inactive), the GI50 (NCI-H23) was 24.2 µM (inactive) and 17.2 µM (inactive) and the GI50 (RXF 393) was 23.1 µM (inactive) and 24.4 µM (inactive). The GI50 (NCI/ADR-RES) was > 100 µM (inactive), the GI50 (COLO 205) was 14 µM (inactive) and 11.8 µM (inactive) and the GI50 (LXFL 529) was 13.9 µM (inactive). For the same compound, the GI50 (ACHN) was 26.2 µM (inactive) and 23.7 µM (inactive), the GI50 (SF-295) was > 100 µM (inactive) and the GI50 (SK-MEL-28) was 18.3 µM (inactive) and 26.9 µM (inactive). The GI50 (PC-3) was 39.2 µM (inactive), the GI50 (A498) was 33 µM (inactive) and 28.2 µM (inactive) and the GI50 (HCC 2998) was 22.4 µM (inactive) and 15.6 µM (inactive).
